According to patent US5464865A, “4-aryl- and 4-arylthio-5-hydroxy-2(5H)-furanones as inhibitors of phospholipase A2” (Ortho Pharmaceutical Corporation, priority 1993, dated 1995):

Assays:
[1] = system: TPA-induced inflammation in the mouse ear; test: Topical anti-inflammatory activity: TPA-induced inflammation (edema) in the mouse ear; type: in vivo, mouse (male CD-1); conditions: for inhibition in vivo at 100 µg/ear: Mus musculus, @ 100 μg, 5-6 h after TPA
Protocol: The topical anti-inflammatory activity of the compounds is determined by measuring the degree of inhibition of TPA-induced inflammation in the mouse ear, using essentially the procedure of C. Van Arman, Clin. Pharmacol. Ther., 16, 900 (1974). Male CD-1 mice are used at seven to nine weeks of age. 12-O-tetradecanoylphorbol acetate ([…] in 20 μl of acetone) is dispensed onto the dorsum of the left ear of each mouse, and the right ear is left untreated. Ten mice so treated serve as the control group. […]
After five to six hours, the animals are sacrificed by CO2 inhalation, the ears are removed, and 7 mm circular punch biopsies of are taken from each ear and weighed. The difference in biopsy weight between treated and untreated ears is determined, and the degree of anti-inflammatory activity is expressed in terms of the percent inhibition of ear weight increase relative to the control group. In multiple-dose experiments, varying amounts of the compound to be tested are applied along with the TPA and the results are expressed as the ED50, the dose at which a 50% inhibition of weight gain is observed.

[2] = molecular target: T1, human platelet phospholipase A2 (Homo sapiens, UniProt P14555); test: Inhibition of human platelet phospholipase A2 (14C-oleate E. coli substrate); type: biochemical; conditions: for IC50: pH 7.0, 37°, 60 min incubation, read-out: Inhibition of PLA2, IC50; for inhibition at 50 µM: read-out: Inhibition of PLA2, % Inhibition @ 50 μM
T1 construct: a preparation of human platelet phospholipase A2; from tissue; host or cells: human platelets
T1 sequence (P14555 21-144): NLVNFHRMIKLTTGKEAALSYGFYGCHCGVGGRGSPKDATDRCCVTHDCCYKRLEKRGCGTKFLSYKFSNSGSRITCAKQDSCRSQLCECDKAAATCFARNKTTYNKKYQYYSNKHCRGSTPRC
Protocol: The activity of the compounds of the invention against phospholipase A2 is determined using a preparation of human platelet phospholipase A2 with a specific activity of 180 nmol/min/mg as the enzyme source. Polypropylene 15-ml test tubes are utilized as the reaction vessels. All drug samples are run in duplicate, with "blank" and "control" (no test compound) groups run in triplicate. […] Test compounds are dissolved in DMSO, and diluted to a projected final concentration of either 50 or 10 μM in 550 μl HEPES buffer at pH 7.0. A 1:7 dilution of human platelet PLA2 in HEPES buffer (5 μl) is added to each test tube, followed by gentle vortexing for 3 seconds. The reaction tubes containing drug, buffer, and enzyme are preincubated for 15 min at 37°, followed by the addition of 25 μl of ^14 C-oleate E. coli substrate. Details regarding this substrate may be found in a publication by S. Ghosh and R. Franson, Biochem. Cell. Biol., 70, 43 (1992), and references therein.
The tubes are immediately vortexed at moderate speed for 3 sec, followed by a 60 min incubation at 37° in a shaking water bath. The reaction is stopped by the addition of 3 ml of a 1:2 chloroform-methanol mixture. Additional water (1.5 ml) and chloroform (1.0 ml) are added, followed by vortexing. The lower phase is removed with a polypropylene transfer pipette, and transferred to a 13×100 mm polypropylene test tube. The organic solvent is evaporated with a stream of nitrogen, the residue is redissolved in 30 μl of a 9:1 chloroform-methanol mixture, and the solution is spotted on a channeled polyester-backed silica gel TLC plate, such as those available under the trade name PE SIL G available from Whatman Inc, Clifton, N.J.
The plate is developed with an 80:20:1 mixture of petroleum ether-diethyl ether-acetic acid. […] The plate is scored above the origin, cut along the score with scissors, and the reactant (origin) and product portions of each channel are put into separate scintillation vials. To each vial is added a scintillation cocktail (15 ml), preferably that sold under the trademark ECOLUME by ICN Biomedicals, Irvine Calif. The vials are shaken vigorously for 5 sec, and the radioactive ^14 C in each vial is measured with a scintillation counter, which provides the counts-per-minute (cpm) for each sample. The obtained cpm values are corrected for the "blank" values.
The percentage of phospholipid hydrolyzed is calculated by the formula:
Phospholipid converted=100×cpm products / (cpm products+cpm
The inhibition of phospholipase A2 by the test compounds is expressed as a percent inhibition relative to the control group:
% Inhibition=[…]

[3] = system: PLA2; conditions: literature; cited from earlier work

Compound | inhibition in vivo at 100 µg/ear [1] [%] | IC50 [2] [µM] | inhibition at 50 µM [2] [%] | inhibition of PLA2 [3] | nature of PLA2 inhibition [3] | Inhibition of ear edema, IC50 ([1]; multiple-dose experiment, dose for 50% inhibition of weight gain) [µg]
O=C1C=C(c2ccc(OCCCCCCOc3ccc4ccccc4c3)cc2)C(O)O1 (stereo not drawn) [Example 13, 5-Hydroxy-4-[4-(6-(2-naphthyloxy)hexyloxy)phenyl]-2(5H)furanone] | 0 | 22 | 73 |  |  | 
CC1=C(CCCCCCCOc2ccc(C3=CC(=O)OC3O)cc2)C(C)(C)CCC1 (stereo not drawn) [Example 27, 5-Hydroxy-4-(4-(7-(2,6,6-trimethyl-1-cyclohexen-1-30 yl)heptyloxy)phenyl)-2(5H)-furanone] | 35 | 1.4 | 67 |  |  | 
CC1=C(CC/C(C)=C/CCC2=CCC(C3=CC(=O)OC3O)OC2O)C(C)(C)CCC1 (stereo not drawn) [Manoalide, manoalide] |  |  |  | potent inhibitor of PLA2 | irreversible nature of PLA2 inhibition | 
CC1=C(C/C=C(\C)COc2cccc(C3=CC(=O)OC3O)c2)C(C)(C)CCC1 (stereo not drawn) [Example 17, (E)-5-Hydroxy-4-(3-(2-methyl-4-(2,6,6-trimethyl-1-cyclohexen-1-yl)-2-butenyloxy)phenyl)-2(5H)-furanone] | 51 | 8 | 100 |  |  | 87
